The results in this text go back to patent US20070166774A1, “Functional immunoassay” (priority 2006, published 2007).

In this assay the test system is antibody (anti-gadolinium-DTPA). Put plainly: Immunoassay of gadolinium DTPA, standard curve (HRP-conjugate, microtiter plate). The format is binding, rabbit. On the procedure:
White New Zealand rabbits were injected subcutaneously with 1 mg of antigen (1 mg/ml) in multiple sites on the rabbit's back according to the schedule in Table 2. The initial injection was prepared in Freund's complete adjuvant. All other injections were prepared in Freund's incomplete adjuvant. Coating polystyrene microtiter plates. Microtiter strips were coated with 200 ul of 10 ug/ml antibody solution diluted in 0.1 M carbonate buffer pH 9 and incubated overnight at room temperature. The coated plates were blocked with a phosphate buffered saline, pH 7.4 solution containing bovine serum (5 mg/ml) and dextrose 20 mg/ml) for 30 minutes, blotted dry and stored at 4° C. until used. All plates were used within 5 days of preparation. In a typical preparation the coating antibody was a goat anti-rabbit serum. HRP-conjugates. HRP-conjugates prepared as described in Example 11 were diluted between 1 to 100 and 1 to 1000 into phosphate buffered saline, pH 7.4 buffer containing bovine albumin (1 mg/ml). General immunoassay protocols for analytes were performed as follows. 100 μl of standard or serum sample was pipeted into appropriate wells in duplicate followed by 100 μl of antibody. To each well was added 200 μl of HRP-conjugate. After a 60 minute incubation at room temperature the wells were aspirated and washed three times with phosphate buffered saline, pH 7.4 containing (0.1% serum albumin and 0.01% Tween 20. To each well was added 200 ul of substrate solution and incubated for 30 minutes at room temperature. The development of color was stopped by the addition of 50 μl of stop solution. The wells were read using a microtiter plate reader. Standard curve data for gadolinium DTPA is shown in Table 3. Standard values were chosen specifically for this assay as shown in Table 3.

As to `O=C([O-])CN(CCN(CC(=O)[O-])CC(=O)[O-])CCN(CC(=O)[O-])CC(=O)[O-].[Gd+3]` [Gadolinium DTPA, gadolinium DTPA], the “Optical density, 450 nm” value runs as follows: (Gadolinium DTPA concentration 1 × 10^−2 M) 0.29; (Gadolinium DTPA concentration 1 × 10^−3 M) 0.42; (Gadolinium DTPA concentration 1 × 10^−4 M) 0.48; (Gadolinium DTPA concentration 1 × 10^−5 M) 0.57; (Gadolinium DTPA concentration 1 × 10^−6 M) 0.58; (Gadolinium DTPA concentration 5 × 10^−5 M) 0.55. The “Optical density, 450 nm” value (Gadolinium DTPA concentration 5 × 10^−6 M) is recorded as 0.61.
